# Source: ChEMBL document CHEMBL5316373, “Discovery of novel bicyclic[3.3.0]proline peptidyl α-ketoamides as potent 3CL-protease inhibitors for SARS-CoV-2” (Bioorg Med Chem Lett, 2023)
# What was measured:
# [1] = target: Replicase polyprotein 1ab (Severe acute respiratory syndrome coronavirus 2, UniProt P0DTD1); experiment: Inhibition of SARS CoV-2 main protease preincubated for 30 min followed by substrate addition and measured after 60 mins by fluorescence assay
# Human coronavirus OC43 [2] = experiment: microbe, parasite or virus in culture; conditions: Betacoronavirus 1, MRC5, 120 h
# [3] = Clearance in mouse at 3 mg/kg, iv; type: ADME, organism-based; conditions: in vivo
# [4] = Volume of distribution at steady state in mouse at 3 mg/kg, iv; type: ADME, organism-based; conditions: in vivo, read-out: Vdss
# [5] = Half life in mouse 3 mg/kg, iv; type: ADME, organism-based; conditions: in vivo
# [6] = Cmax in mouse at 10 mg/kg, po; type: ADME, organism-based; parameters: route po; conditions: in vivo
# [7] = AUC in mouse at 10 mg/kg, po; type: ADME, organism-based; parameters: route po; conditions: in vivo
# [8] = Oral bioavailability in mouse at 10 mg/kg; type: ADME, organism-based; conditions: in vivo
# [9] = Stability of compound in mouse plasma assessed as compound remaining and measured after 2 hrs; type: ADME, cell-free
# [10] = Stability of compound in rat plasma assessed as compound remaining and measured after 2 hrs; type: ADME, cell-free
# [11] = Clearance in rat at 2 mg/kg, iv; type: ADME, organism-based; conditions: in vivo
# [12] = Volume of distribution at steady state in rat at 2 mg/kg, iv; type: ADME, organism-based; conditions: in vivo, read-out: Vdss
# [13] = Half life in rat 2 mg/kg, iv; type: ADME, organism-based; conditions: in vivo
# [14] = Cmax in rat at 10 mg/kg, po; type: ADME, organism-based; parameters: route po; conditions: in vivo
# [15] = AUC in rat at 10 mg/kg, po; type: ADME, organism-based; parameters: dose 10 mg/kg, route po; conditions: in vivo
# [16] = Oral bioavailability in rat at 10 mg/kg; type: ADME, organism-based; conditions: in vivo
# Human coronavirus OC43 [17] = experiment: In vivo antiviral activity against HCoV-OC43 infected in mouse assessed as organism survival rate at 50 mg/kg,ip for 7 days; type: functional; conditions: time 7 day
# [18] = Stability of compound in human plasma assessed as compound remaining and measured after 2 hrs; type: ADME, cell-free
# SARS-CoV-2 = experiment: microbe, parasite or virus in culture; conditions: Severe acute respiratory syndrome coronavirus 2, Vero, 24 h
# Human coronavirus OC43 [19] = experiment: In vivo antiviral activity against HCoV-OC43 infected in mouse assessed as organism survival rate at 25 mg/kg,ip for 7 days; type: functional; conditions: time 7 day
# Human coronavirus OC43 [20] = experiment: In vivo antiviral activity against HCoV-OC43 infected in mouse assessed as organism survival rate at 12.5 mg/kg,ip for 7 days; type: functional; conditions: time 7 day
# Human coronavirus OC43 [21] = experiment: In vivo antiviral activity against HCoV-OC43 infected in mouse assessed as organism survival rate at 12.5 to 50 mg/kg,ip for 7 days; type: functional, organism-based; conditions: dose 12.5-50 mg/kg, time 7.0 day
# [22] = Toxicity in mouse infected with HCoV-OC43 assessed as body weight change at 12.5 to 50 mg/kg, ip for 7 days; type: organism-based; conditions: in vivo, 168 h, dose 12.5-50 mg/kg, time 7 day
Compound,IC50 [1],EC50 (Human coronavirus OC43 [2]),clearance [3],Vd [4],half-life [5],Cmax [6],AUC [7],bioavailability [8],Stability [9],Stability [10],clearance [11],Vd [12],half-life [13],Cmax [14],AUC [15],bioavailability [16],Stability [18],EC50 (SARS-CoV-2),other results
CC(=O)N[C@H](C(=O)N1C[C@@H]2CCC[C@@H]2[C@H]1C(=O)N[C@H](C#N)C[C@@H]1CCNC1=O)C1CCCCC1,551 nM,2780 nM,–,–,–,–,–,–,–,–,–,–,–,–,–,–,–,–,–
CC(C)(C)NC(=O)C(=O)[C@H](C[C@@H]1CCNC1=O)NC(=O)[C@@H]1[C@H]2CCC[C@H]2CN1C(=O)[C@@H](NC(=O)C(F)(F)F)C1CCCC1,–,421 nM,5.06 mL/min/kg,0.911 L/kg,196 min,4800 nM,16.8 µM·h,30.8%,–,–,–,–,–,–,–,–,–,–,–
CC(C)(C)NC(=O)C(=O)[C@H](C[C@@H]1CCNC1=O)NC(=O)[C@@H]1[C@H]2CCC[C@H]2CN1C(=O)[C@@H](NC(=O)C(F)(F)F)C1CC2(CCC2)C1,77 nM,444 nM,–,–,–,–,–,–,–,–,–,–,–,–,–,–,–,–,–
CC(C)(C)[C@H](NC(=O)C(F)(F)F)C(=O)N1C[C@@H]2C[C@@H]2[C@H]1C(=O)N[C@H](C#N)C[C@@H]1CCNC1=O,356 nM,5810 nM,–,–,–,–,–,–,–,–,–,–,–,–,–,–,–,–,–
N#C[C@H](Cc1n[nH]c2ccccc12)NC(=O)[C@@H]1[C@H]2CCC[C@H]2CN1C(=O)[C@@H](NC(=O)C(F)(F)F)C1CCCCC1,> 1000 nM,4890 nM,–,–,–,–,–,–,–,–,–,–,–,–,–,–,–,–,–
CC(C)(C)[C@H](NC(=O)C(F)(F)F)C(=O)N1C[C@H]2[C@@H]([C@H]1C(=O)N[C@H](C#N)C[C@@H]1CCNC1=O)C2(C)C,–,–,30.2 mL/min/kg,0.456 L/kg,42.8 min,2720 nM,3.58 µM·h,32.7%,91%,84%,42 mL/min/kg,1.24 L/kg,46.2 min,2140 nM,2.38 µM·h,29.9%,–,–,Activity (Human coronavirus OC43 [17]): 100%
N#C[C@H](C[C@@H]1CCNC1=O)NC(=O)[C@@H]1[C@H]2CCC[C@H]2CN1C(=O)[C@@H](NC(=O)C(F)(F)F)C1CCCCC1,47 nM,112 nM,92.2 mL/min/kg,1.01 L/kg,11.3 min,1160 nM,0.478 µM·h,14.2%,100%,–,62.7 mL/min/kg,1.34 L/kg,22.7 min,3470 nM,2.92 µM·h,57.6%,108%,43 nM,–
N#C[C@H](C[C@@H]1CCNC1=O)NC(=O)[C@@H]1[C@H]2CCC[C@H]2CN1C(=O)[C@@H](NC(=O)C(F)(F)F)c1ccc(F)cc1,165 nM,677 nM,–,–,–,–,–,–,–,–,–,–,–,–,–,–,–,–,–
CC(C)(C)[C@H](NC(=O)C(F)(F)F)C(=O)N1C[C@@H]2CCC[C@@H]2[C@H]1C(=O)N[C@H](C#N)C[C@@H]1CCNC1=O,43 nM,136 nM,79.3 mL/min/kg,0.64 L/kg,6.66 min,790 nM,0.553 µM·h,13.3%,102%,100%,75.4 mL/min/kg,1.25 L/kg,14.3 min,2980 nM,2.31 µM·h,52%,106%,64 nM,–
CC(C)(C)NC(=O)C(=O)[C@H](C[C@@H]1CCNC1=O)NC(=O)[C@@H]1[C@H]2CCC[C@H]2CN1C(=O)[C@@H](NC(=O)C(F)(F)F)C1CCCCC1,34 nM,146 nM,–,–,–,4810 nM,33 µM·h,32%,106%,96%,2.55 mL/min/kg,0.929 L/kg,262 min,3790 nM,37.4 µM·h,37.4%,102%,53 nM,Activity (Human coronavirus OC43 [17]): 100%; Activity (Human coronavirus OC43 [19]): 83.3%; Activity (Human coronavirus OC43 [20]): 66.6%; Activity (Human coronavirus OC43 [21]): Dose-Dependent Effect; Activity [22]: Toxic
